Peptide text beside a SMILES is read from it.
Experiments:
SPC25 = biological target: T1, SPC25 (Homo sapiens, UniProt Q9HBM1); test: Surface plasmon resonance, CBP1 binding to SPC25; conditions: SPR, BIAcore T200, CBP1 binding to SPC25; read-out: dissociation constant Kd
T1 sequence (Q9HBM1 1-224): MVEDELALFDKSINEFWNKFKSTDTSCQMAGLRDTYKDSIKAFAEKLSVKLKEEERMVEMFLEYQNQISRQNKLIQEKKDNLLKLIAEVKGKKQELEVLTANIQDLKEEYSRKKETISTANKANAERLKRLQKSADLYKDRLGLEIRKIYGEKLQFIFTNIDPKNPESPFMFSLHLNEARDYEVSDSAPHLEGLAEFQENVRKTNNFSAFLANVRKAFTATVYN
Protocol: Analysis of Surface Plasmon Resonance: Analysis of Surface Plasmon Resonance Binding kinetics between SPC25 and the indicated peptide-CBP1 were measured by Surface Plasmon Resonance (SPR) using a BIAcore T200 instrument (GE Healthcare, CA, USA). The dissociation constant (Kd) was calculated according to the BIA-evaluation software.

[1] = Survival of non-tumor-bearing mice on CBP1; format: in vivo, BALB/c-Nude mice; set-up: key to Survival status: 0: Alive; 1: Dead; conditions: for Survival status / Survival time (Days after CDDP treatment): CBP1 10mg/kg; for Survival status: day 42; for Survival time (Days after CDDP treatment): alive at this day
[2] = Serum urea, creatinine, alanine aminotransferase, aspartate aminotransferase (hepatorenal function); conditions: for ALT / AST / CRE (creatinine) / UREA: mice under CBP1 treatment, after 6 weeks
Source text: Subsequently, we established a BALB/c‐Nude mouse model of EOC by intraperitoneally injecting OVCAR8 cells stably expressing a luciferase gene, as described previously. On reaching a bioluminescence signal of 2 × 10^7 p/s/cm^2/sr, mice were divided into 4 treatment groups: Vehicle, CBP1, CDDP, and CDDP/CBP1 (n = 7 per group; Figure 5I).
H) Serum urea, creatinine, alanine aminotransferase, and aspartate aminotransferase levels in normal and CBP1-treated nude mice assessed to evaluate hepatorenal function. […] Error bars represent the means ± SD of independent experiments; ns denotes not significant. In (A) and (H), two-sided Student’s t test was used.

[3] = tested on: EOC organoids (HGS-202, HGS-203, HGS-107); test: Cell Counting Kit-8 assay in EOC patient-derived organoids; format: cell-based; conditions: EOC organoids HGS-202, HGS-203, HGS-107, compared with controls
[4] = 10 mg/kg, i.p., once every 2 days, 6 weeks, BALB/c-Nude mice without tumors

**Q.** Which Kd (SPC25) does the source give for `CC[C@H](C)[C@H](NC(=O)[C@H](Cc1ccc(O)cc1)NC(=O)[C@H](C)NC(=O)CNC(=O)CNC(=O)[C@H](Cc1c[nH]c2ccccc12)NC(=O)[C@@H]1CCCN1C(=O)[C@H](CO)NC(=O)[C@@H](NC(=O)[C@H](Cc1ccc(O)cc1)NC(=O)[C@H](CC(C)C)NC(=O)[C@@H](N)Cc1c[nH]cn1)C(C)C)C(=O)N1CCC[C@H]1C(=O)N[C@@H](CCCNC(=N)N)C(=O)N[C@H](C(=O)N[C@@H](CC(C)C)C(=O)N[C@@H](CC(N)=O)C(=O)N[C@@H](CCC(=O)O)C(=O)N[C@H](C(=O)N[C@@H](CCCCN)C(=O)N[C@@H](CC(N)=O)C(=O)N[C@@H](Cc1ccc(O)cc1)C(=O)N[C@@H](CCC(=O)O)C(=O)N[C@@H](CCCNC(=N)N)C(=O)O)C(C)C)[C@@H](C)O` [CBP1] (H-HLYVSPWGGAYIPRTLNEVKNYER-OH) here?
**A.** The Kd was 13.3 ± 2.88 µM.

**Q.** What about the “effect on survival of normal mice” value [1, 4] of the same compound?
**A.** Its value is “did not cause considerable hepatorenal toxicity or affect survival in the mice”.

**Q.** And the Survival status ([1]; animal 1)?
**A.** The Survival status was 0.

**Q.** And the Survival status ([1]; animal 2)?
**A.** The Survival status was 0.

**Q.** And the Survival status ([1]; animal 3)?
**A.** The Survival status was 0.

**Q.** And the Survival status ([1]; animal 4)?
**A.** The Survival status was 0.

**Q.** What about the Survival status ([1]; animal 5) of the same compound?
**A.** The Survival status was 0.

**Q.** What about the Survival status ([1]; animal 6) of the same compound?
**A.** Its Survival status is 0.

**Q.** What about the Survival status ([1]; animal 7) of the same compound?
**A.** The Survival status was 0.

**Q.** What about the “Survival time (Days after CDDP treatment)” value (“Survival time” below) ([1]; animal 1) of the same compound?
**A.** The value was no less than 42 days.

**Q.** What about the “Survival time” value ([1]; animal 2) of the same compound?
**A.** The value was no less than 42 days.

**Q.** And the “Survival time” value ([1]; animal 3)?
**A.** Its value is no less than 42 days.

**Q.** What about the “Survival time” value ([1]; animal 4) of the same compound?
**A.** The value was no less than 42 days.

**Q.** And the “Survival time” value ([1]; animal 5)?
**A.** The value was no less than 42 days.

**Q.** And the “Survival time” value ([1]; animal 6)?
**A.** Its value is no less than 42 days.

**Q.** What about the “Survival time” value ([1]; animal 7) of the same compound?
**A.** The value was no less than 42 days.

**Q.** What about the hepatorenal toxicity [2, 4] of the same compound?
**A.** Its hepatorenal toxicity is “did not cause considerable hepatorenal toxicity”.

**Q.** What about the ALT ([2]; animal #1) of the same compound?
**A.** The ALT was 61.601 U/L.

**Q.** What about the AST ([2]; animal #1) of the same compound?
**A.** Its AST is 95.798 U/L.

**Q.** And the “CRE (creatinine)” value ([2]; animal #1)?
**A.** Its value is 0.334 mg/dL.

**Q.** And the UREA ([2]; animal #1)?
**A.** The UREA was 19.36 mg/dL.

**Q.** What about the ALT ([2]; animal #2) of the same compound?
**A.** Its ALT is 48.846 U/L.

**Q.** What about the AST ([2]; animal #2) of the same compound?
**A.** Its AST is 169.051 U/L.

**Q.** What about the “CRE (creatinine)” value ([2]; animal #2) of the same compound?
**A.** The value was 0.381 mg/dL.

**Q.** What about the UREA ([2]; animal #2) of the same compound?
**A.** Its UREA is 24.41 mg/dL.

**Q.** What about the ALT ([2]; animal #3) of the same compound?
**A.** The ALT was 37.083 U/L.

**Q.** And the AST ([2]; animal #3)?
**A.** Its AST is 149.075 U/L.

**Q.** And the “CRE (creatinine)” value ([2]; animal #3)?
**A.** The value was 0.362 mg/dL.

**Q.** What about the UREA ([2]; animal #3) of the same compound?
**A.** The UREA was 17.46 mg/dL.

**Q.** And the ALT ([2]; animal #4)?
**A.** The ALT was 56.136 U/L.

**Q.** And the AST ([2]; animal #4)?
**A.** Its AST is 97.689 U/L.

**Q.** What about the “CRE (creatinine)” value ([2]; animal #4) of the same compound?
**A.** Its value is 0.247 mg/dL.

**Q.** And the UREA ([2]; animal #4)?
**A.** Its UREA is 15.11 mg/dL.

**Q.** What about the ALT ([2]; animal #5) of the same compound?
**A.** Its ALT is 58.209 U/L.

**Q.** And the AST ([2]; animal #5)?
**A.** Its AST is 124.231 U/L.

**Q.** And the “CRE (creatinine)” value ([2]; animal #5)?
**A.** Its value is 0.314 mg/dL.

**Q.** What about the UREA ([2]; animal #5) of the same compound?
**A.** The UREA was 16.87 mg/dL.

**Q.** And the ALT ([2]; animal #6)?
**A.** Its ALT is 57.394 U/L.

**Q.** And the AST ([2]; animal #6)?
**A.** Its AST is 120.889 U/L.

**Q.** And the “CRE (creatinine)” value ([2]; animal #6)?
**A.** Its value is 0.253 mg/dL.

**Q.** What about the UREA ([2]; animal #6) of the same compound?
**A.** The UREA was 21.13 mg/dL.

**Q.** What about the ALT ([2]; animal #7) of the same compound?
**A.** Its ALT is 54.623 U/L.

**Q.** And the AST ([2]; animal #7)?
**A.** Its AST is 133.397 U/L.

**Q.** What about the “CRE (creatinine)” value ([2]; animal #7) of the same compound?
**A.** Its value is 0.252 mg/dL.

**Q.** What about the UREA ([2]; animal #7) of the same compound?
**A.** The UREA was 15.13 mg/dL.

**Q.** What about the “CDDP cytotoxicity in presence of CBP1” value [3] of the same compound?
**A.** The value was “markedly enhanced CDDP cytotoxicity”.
